This note sets out measurements from patent US9931329B2, “Phenyl triazole derivative and its use for modulating the GABAA receptor complex” (SANIONA A/S, priority 2012, dated 2018).

Series [1] deals with T1, human GABAA α5β3*γ2S receptor (Homo sapiens, UniProt P18507+P31644).
T1 construct: expressed in transfected cells
Description: In vitro inhibition of 3H-flumazenil binding, HEK cells expressing human GABAA α5β3*γ2S receptor. The method, then: When the cultures reach confluency, the DMEM is removed and the cells are washed (10 ml for T175 flasks; 50 ml for roller bottles) once in Dulbecco's Phosphate Buffered Saline (DPBS). Following addition of DPBS to the cultures (10 ml for T175 flasks; 100 ml for roller bottles) for approximately 5 min cells are easily detached from the surface by shaking or tapping the flask gently. The cell suspension is transferred to Falcon tubes and centrifuged at 23,500×g for 10 min at 2° C. The pellet is washed once in 15 ml Tris-citrate buffer (50 mM, pH 7.1) using an Ultra-Turrax homogenizer and centrifuged at 2° C. for 10 min at 27,000×g. The washed pellet is re-suspended in 15 ml Tris-citrate buffer and frozen at −80° C. until the day of the binding experiment.
On the day of the experiment the cell membrane preparation is thawed and centrifuged at 2° C. for 10 min at 27,000×g.
Non-specific binding is determined using clonazepam (1 μM, final concentration). […]
The amount of radioactivity on the filters is determined by conventional liquid scintillation counting using a […]
where B is the binding in percentage of total specific binding; C is the concentration of test compound; and n is the Hill coefficient. […] The IC50 value is calculated from the concentration response curves by the non-linear regression method using the curve-fitting program GraphPad Prism.

T1 sequence (P31644 32-462): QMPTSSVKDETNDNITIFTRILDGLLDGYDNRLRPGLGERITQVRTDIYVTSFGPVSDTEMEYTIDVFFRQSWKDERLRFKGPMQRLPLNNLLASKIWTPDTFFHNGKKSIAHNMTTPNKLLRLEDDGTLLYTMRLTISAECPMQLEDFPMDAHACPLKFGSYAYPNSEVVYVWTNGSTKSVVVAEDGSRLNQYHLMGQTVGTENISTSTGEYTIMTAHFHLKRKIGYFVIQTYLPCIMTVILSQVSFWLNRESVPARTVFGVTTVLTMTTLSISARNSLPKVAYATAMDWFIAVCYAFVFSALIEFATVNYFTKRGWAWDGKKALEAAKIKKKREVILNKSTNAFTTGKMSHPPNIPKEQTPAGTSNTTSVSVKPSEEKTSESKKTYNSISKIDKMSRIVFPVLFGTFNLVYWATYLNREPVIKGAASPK
T1 sequence (P18507 40-467 isoform P18507-1 limits assumed): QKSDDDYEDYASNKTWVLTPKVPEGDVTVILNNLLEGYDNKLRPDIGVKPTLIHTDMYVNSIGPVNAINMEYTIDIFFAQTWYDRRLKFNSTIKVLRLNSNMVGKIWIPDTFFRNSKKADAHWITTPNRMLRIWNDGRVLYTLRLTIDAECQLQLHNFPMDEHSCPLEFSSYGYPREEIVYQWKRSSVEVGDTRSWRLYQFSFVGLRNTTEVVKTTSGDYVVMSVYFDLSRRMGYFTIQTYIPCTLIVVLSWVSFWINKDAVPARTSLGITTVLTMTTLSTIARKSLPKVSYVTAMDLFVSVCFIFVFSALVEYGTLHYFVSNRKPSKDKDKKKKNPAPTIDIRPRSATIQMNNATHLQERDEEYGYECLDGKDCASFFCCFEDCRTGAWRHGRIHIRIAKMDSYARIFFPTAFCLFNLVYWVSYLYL

The molecule `Cn1nnc(-c2ccccc2F)c1COc1ccc(-n2cnc(C#N)c2)cn1` [Compound 7, 1-{6-[5-(2-Fluoro-phenyl)-3-methyl-3H-[1,2,3]triazol-4-ylmethoxy]-pyridin-3-yl}-1H-imidazole-4-carbonitrile] gave a melting point of 178 to 181.5 °C. In addition, in series [1], the inhibition constant Ki turned out to be 20 nM.

What is called melting point is the temperature, or range, at which the solid turns liquid. Usually Ki stands for the equilibrium dissociation constant of an inhibitor or competing ligand from its target. Low values mean higher affinity, high ones lower affinity.
